# Experimental data: ChEMBL document CHEMBL3885881, “DrugMatrix”
# Species: Rattus norvegicus
# Assay: DrugMatrix - Regimen: Daily Repeat
# Format: toxicity, organism-based, Sprague-Dawley
# Design: regimen Daily Repeat, gender Male, age 6-8 weeks
# Conditions: in vivo, po, route oral GAVAGE, […]; for ABSOLUTE BASOPHIL / ABSOLUTE EOSINOPHIL / ABSOLUTE LYMPHOCYTE / ABSOLUTE MONOCYTE / ABSOLUTE SEGMENTED NEUTROPHIL / BASOPHIL / EOSINOPHIL / ERYTHROCYTE COUNT / HEMATOCRIT / HEMOGLOBIN / LEUKOCYTE COUNT / LYMPHOCYTE / MEAN CORPUSCULAR HEMOGLOBIN / MEAN CORPUSCULAR HEMOGLOBIN CONCENTRATION / MEAN CORPUSCULAR VOLUME / MONOCYTE / NEUTROPHIL / NUCLEATED RED BLOOD CELLS / PLATELET COUNT: tissue Blood; for ALANINE AMINOTRANSFERASE / ALBUMIN / ALKALINE PHOSPHATASE / ASPARTATE AMINOTRANSFERASE / BLOOD UREA NITROGEN / CARBON DIOXIDE / CHLORIDE / CHOLESTEROL / CREATINE PHOSPHOKINASE / CREATININE / GLUCOSE / LACTATE DEHYDROGENASE / LIPASE / PHOSPHORUS / POTASSIUM / SODIUM / TOTAL BILIRUBIN / TOTAL PROTEIN / URIC ACID: tissue Plasma
# [1] = 0 mg/kg, 72 h, dose level Control, time 3 day
# [2] = 0 mg/kg, 120 h, dose level Control, time 5 day
# [3] = 10 mg/kg, 72 h, dose level Low, time 3 day
# [4] = 10 mg/kg, 120 h, dose level Low, time 5 day
compound,measurement,setting,value
OC(Cn1cncn1)(Cn1cncn1)c1ccc(F)cc1F [FLUCONAZOLE],ABSOLUTE BASOPHIL,[1],0 CELLS/uL
same,ABSOLUTE EOSINOPHIL,[1],104.17 CELLS/uL
same,ABSOLUTE LYMPHOCYTE,[1],14547 CELLS/uL
same,ABSOLUTE MONOCYTE,[1],292 CELLS/uL
same,ABSOLUTE SEGMENTED NEUTROPHIL,[1],1640.17 CELLS/uL
same,BASOPHIL,[1],0%
same,EOSINOPHIL,[1],0.67%
same,ERYTHROCYTE COUNT,[1],5.35 x10E6/uL
same,HEMATOCRIT,[1],33.67%
same,HEMOGLOBIN,[1],13.38 G/DL
same,LEUKOCYTE COUNT,[1],16.58 x10E3/uL
same,LYMPHOCYTE,[1],87.5%
same,MEAN CORPUSCULAR HEMOGLOBIN,[1],25.05 pg
same,MEAN CORPUSCULAR HEMOGLOBIN CONCENTRATION,[1],39.78 G/DL
same,MEAN CORPUSCULAR VOLUME,[1],62.97 fL
same,MONOCYTE,[1],1.83%
same,NEUTROPHIL,[1],10%
same,NUCLEATED RED BLOOD CELLS,[1],0 /100WBC
same,PLATELET COUNT,[1],1274.5 x10E3/uL
same,ALANINE AMINOTRANSFERASE,[1],76.83 u/L
same,ALBUMIN,[1],3.97 G/DL
same,ALKALINE PHOSPHATASE,[1],347 u/L
same,ASPARTATE AMINOTRANSFERASE,[1],97.17 u/L
same,BLOOD UREA NITROGEN,[1],14.33 mg/dL
same,CARBON DIOXIDE,[1],25.5 mmol/L
same,CHLORIDE,[1],100.33 MEQ/L
same,CHOLESTEROL,[1],68.67 mg/dL
same,CREATINE PHOSPHOKINASE,[1],659.17 u/L
same,CREATININE,[1],0.32 mg/dL
same,GLUCOSE,[1],160.67 mg/dL
same,LACTATE DEHYDROGENASE,[1],271.5 u/L
same,LIPASE,[1],11.67 u/L
same,PHOSPHORUS,[1],10.65 mg/dL
same,POTASSIUM,[1],5.95 MEQ/L
same,SODIUM,[1],139.65 MEQ/L
same,TOTAL BILIRUBIN,[1],0.2 mg/dL
same,TOTAL PROTEIN,[1],5.72 G/DL
same,URIC ACID,[1],1.37 mg/dL
same,ABSOLUTE BASOPHIL,[2],0 CELLS/uL
same,ABSOLUTE EOSINOPHIL,[2],331.5 CELLS/uL
same,ABSOLUTE LYMPHOCYTE,[2],15021.67 CELLS/uL
same,ABSOLUTE MONOCYTE,[2],376.5 CELLS/uL
same,ABSOLUTE SEGMENTED NEUTROPHIL,[2],3070.33 CELLS/uL
same,BASOPHIL,[2],0%
same,EOSINOPHIL,[2],1.83%
same,ERYTHROCYTE COUNT,[2],5.24 x10E6/uL
same,HEMATOCRIT,[2],33.22%
same,HEMOGLOBIN,[2],13.2 G/DL
same,LEUKOCYTE COUNT,[2],18.8 x10E3/uL
same,LYMPHOCYTE,[2],79.67%
same,MEAN CORPUSCULAR HEMOGLOBIN,[2],25.17 pg
same,MEAN CORPUSCULAR HEMOGLOBIN CONCENTRATION,[2],39.73 G/DL
same,MEAN CORPUSCULAR VOLUME,[2],63.38 fL
same,MONOCYTE,[2],2%
same,NEUTROPHIL,[2],16.5%
same,NUCLEATED RED BLOOD CELLS,[2],0 /100WBC
same,PLATELET COUNT,[2],1142.67 x10E3/uL
same,ALANINE AMINOTRANSFERASE,[2],52.5 u/L
same,ALBUMIN,[2],3.9 G/DL
same,ALKALINE PHOSPHATASE,[2],284.5 u/L
same,ASPARTATE AMINOTRANSFERASE,[2],81.33 u/L
same,BLOOD UREA NITROGEN,[2],16 mg/dL
same,CARBON DIOXIDE,[2],25.33 mmol/L
same,CHLORIDE,[2],99.5 MEQ/L
same,CHOLESTEROL,[2],74.83 mg/dL
same,CREATINE PHOSPHOKINASE,[2],448.33 u/L
same,CREATININE,[2],0.37 mg/dL
same,GLUCOSE,[2],164.17 mg/dL
same,LACTATE DEHYDROGENASE,[2],290.67 u/L
same,LIPASE,[2],6.83 u/L
same,PHOSPHORUS,[2],11.5 mg/dL
same,POTASSIUM,[2],6.28 MEQ/L
same,SODIUM,[2],139.5 MEQ/L
same,TOTAL BILIRUBIN,[2],0.13 mg/dL
same,TOTAL PROTEIN,[2],5.55 G/DL
same,URIC ACID,[2],1.12 mg/dL
same,ABSOLUTE BASOPHIL,[3],0 CELLS/uL
same,ABSOLUTE EOSINOPHIL,[3],105 CELLS/uL
same,ABSOLUTE LYMPHOCYTE,[3],3531.33 CELLS/uL
same,ABSOLUTE MONOCYTE,[3],187.33 CELLS/uL
same,ABSOLUTE SEGMENTED NEUTROPHIL,[3],2209.67 CELLS/uL
same,BASOPHIL,[3],0%
same,EOSINOPHIL,[3],1.67%
same,ERYTHROCYTE COUNT,[3],5.95 x10E6/uL
same,HEMATOCRIT,[3],39.17%
same,HEMOGLOBIN,[3],15.1 G/DL
same,LEUKOCYTE COUNT,[3],6.03 x10E3/uL
same,LYMPHOCYTE,[3],58%
same,MEAN CORPUSCULAR HEMOGLOBIN,[3],25.67 pg
same,MEAN CORPUSCULAR HEMOGLOBIN CONCENTRATION,[3],38.63 G/DL
same,MEAN CORPUSCULAR VOLUME,[3],66.27 fL
same,MONOCYTE,[3],3%
same,NEUTROPHIL,[3],37.33%
same,NUCLEATED RED BLOOD CELLS,[3],0 /100WBC
same,PLATELET COUNT,[3],1032.33 x10E3/uL
same,ALANINE AMINOTRANSFERASE,[3],59.33 u/L
same,ALBUMIN,[3],4.63 G/DL
same,ALKALINE PHOSPHATASE,[3],452.67 u/L
same,ASPARTATE AMINOTRANSFERASE,[3],96 u/L
same,BLOOD UREA NITROGEN,[3],19.33 mg/dL
same,CARBON DIOXIDE,[3],20.67 mmol/L
same,CHLORIDE,[3],101.33 MEQ/L
same,CHOLESTEROL,[3],45.67 mg/dL
same,CREATINE PHOSPHOKINASE,[3],639.33 u/L
same,CREATININE,[3],0.14 mg/dL
same,GLUCOSE,[3],174 mg/dL
same,LACTATE DEHYDROGENASE,[3],123 u/L
same,LIPASE,[3],24.67 u/L
same,PHOSPHORUS,[3],11.63 mg/dL
same,POTASSIUM,[3],6.15 MEQ/L
same,SODIUM,[3],142.57 MEQ/L
same,TOTAL BILIRUBIN,[3],0.23 mg/dL
same,TOTAL PROTEIN,[3],6.43 G/DL
same,URIC ACID,[3],1.47 mg/dL
same,ABSOLUTE BASOPHIL,[4],0 CELLS/uL
same,ABSOLUTE EOSINOPHIL,[4],0 CELLS/uL
same,ABSOLUTE LYMPHOCYTE,[4],10059.67 CELLS/uL
same,ABSOLUTE MONOCYTE,[4],397 CELLS/uL
same,ABSOLUTE SEGMENTED NEUTROPHIL,[4],1576.67 CELLS/uL
same,BASOPHIL,[4],0%
same,EOSINOPHIL,[4],0%
same,ERYTHROCYTE COUNT,[4],6.01 x10E6/uL
same,HEMATOCRIT,[4],38.4%
same,HEMOGLOBIN,[4],14.77 G/DL
same,LEUKOCYTE COUNT,[4],12.03 x10E3/uL
same,LYMPHOCYTE,[4],83.33%
same,MEAN CORPUSCULAR HEMOGLOBIN,[4],24.57 pg
same,MEAN CORPUSCULAR HEMOGLOBIN CONCENTRATION,[4],38.5 G/DL
same,MEAN CORPUSCULAR VOLUME,[4],63.9 fL
same,MONOCYTE,[4],3.33%
same,NEUTROPHIL,[4],13.33%
same,NUCLEATED RED BLOOD CELLS,[4],0.33 /100WBC
same,PLATELET COUNT,[4],1300 x10E3/uL
same,ALANINE AMINOTRANSFERASE,[4],78.67 u/L
same,ALBUMIN,[4],4.23 G/DL
same,ALKALINE PHOSPHATASE,[4],452.67 u/L
same,ASPARTATE AMINOTRANSFERASE,[4],86.67 u/L
same,BLOOD UREA NITROGEN,[4],10.67 mg/dL
same,CARBON DIOXIDE,[4],27 mmol/L
same,CHLORIDE,[4],100.67 MEQ/L
same,CHOLESTEROL,[4],56 mg/dL
same,CREATINE PHOSPHOKINASE,[4],230.33 u/L
same,CREATININE,[4],0.11 mg/dL
same,GLUCOSE,[4],169.67 mg/dL
same,LACTATE DEHYDROGENASE,[4],181.33 u/L
same,LIPASE,[4],6.67 u/L
same,PHOSPHORUS,[4],11.83 mg/dL
same,POTASSIUM,[4],5.55 MEQ/L
same,SODIUM,[4],141.67 MEQ/L
same,TOTAL BILIRUBIN,[4],0.2 mg/dL
same,TOTAL PROTEIN,[4],6.23 G/DL
same,URIC ACID,[4],1.3 mg/dL
